In US7763615B2, “Ecteinascidin analogs for use as antitumour agents” (priority 2001, dated 2010):
Converted amounts (≈) assume the structure as drawn.

Key:
[1] = tested on: L8, normal rat skeletal muscle cells; conditions: 24 h
[2] = biological target: CYP2D6 (Homo sapiens, UniProt P10635); assay: in vitro; conditions: CYP2D6 (% inhibition)
[3] = tested on: NRK-52E, normal rat kidney cells; conditions: 24 h
[4] = physchem; conditions: pH 7.4, log D n-Octanol-Dulbecco's PBS pH 7.4
[5] = tested on: H-MEC-1; assay: Inhibition of cells growth by colorimetric assay (SRB), H-MEC-1; type: cell-based
Method in brief: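 For 48 hours, cells seeded at 5×10^3 per well were kept in contact with samples spanning 10 to 10^−8 μg/ml after an 18-hour attachment period. Viable biomass was then estimated colorimetrically with sulphorhodamine B at 490 nm.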

[6] = biological target: CYP3A4 (Homo sapiens, UniProt P08684); assay: in vitro; conditions: CYP3A4 (% inhibition)
[7] = tested on: SK-OV3; assay: Inhibition of cells growth by colorimetric assay (SRB), SK-OV3; type: cell-based
Description: The finality of these assays is to interrupt the growth of a “in vitro” tumor cell culture by means of a continued exhibition of the cells to the sample to be testing.
A colorimetric type of assay, using sulphorhodamine B (SRB) reaction has been adapted for a quantitative measurement of cell growth and viability [following the technique described by Philip Skehan, et al. (1990), New colorimetric cytotoxicity assay for anticancer drug screening, J. Natl. Cancer Inst., 82:1107-1112]
This form of the assay employs 96 well cell culture microplates of 9 mm diameter (Faircloth, 1988; Mosmann, 1983). Most of the cell lines are obtained from American Type Culture Collection (ATCC) derived from different human cancer types.
Cells are maintained in RPMI 1640 10% FBS, supplemented with 0.1 g/l penicillin and 0.1 g/l streptomycin sulphate and then incubated at 37° C., 5% CO2 and 98% humidity. For the experiments, cells were harvested from subconfluent cultures using trypsin and resuspended in fresh medium before plating.
Cells are seeded in 96 well microtiter plates, at 5×10^3 cells per well in aliquots of 195 μl medium, and they are allowed to attach to the plate surface by growing in drug free medium for 18 hours. Afterward, samples are added in aliquots of 5 μl in a ranging from 10 to 10^−8 μg/ml, dissolved in DMSO/EtOH/PBS (0.5:0.5:99). After 48 hours exposure, the antitumor effect are measured by the SRB methodology: cells are fixed by adding 50 μl of cold 50% (wt/vol) trichloroacetic acid (TCA) and incubating for 60 minutes at 4° C. Plates are washed with deionized water and dried. One hundred μl of SRB solution (0.4% wt/vol in 1% acetic acid) is added to each microtiter well and incubated for 10 minutes at room temperature. Unbound SRB is removed by washing with 1% acetic acid. Plates are air dried and bound stain is solubilized with Tris buffer. Optical densities are read on a automated spectrophotometric plate reader at a single wavelength of 490 nm.
The values for mean+/− SD of data from triplicate wells are calculated. Some parameters for cellular responses can be calculated: GI=growth inhibition, TGI=total growth inhibition (cytostatic effect) and LC=cell killing (cytotoxic effect).

[8] = physchem; conditions: pH 7.4, aqueous buffer, Solubility Dulbecco's PBS pH 7.4
[9] = tested on: LOVO-DOX; assay: cells; type: cell-based
Method in brief: (§1)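 Seeding density 5×10^3 cells/well; attachment 18 h in drug-free medium; exposure 48 h, 10 to 10^−8 μg/ml. Fixation cold TCA 60 min at 4° C, SRB 10 min, absorbance 490 nm.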

[10] = tested on: SK-BR3; assay: cells; type: cell-based
Method in brief: as §1

[11] = tested on: IGROV-ET; assay: cells; type: cell-based
Method in brief: as §1

[12] = tested on: LOVO; assay: cells; type: cell-based
Method in brief: as §1

[13] = tested on: DU145; assay: cells; type: cell-based
Method in brief: as §1

[14] = tested on: PANC-1; assay: cells; type: cell-based
Method in brief: as §1

[15] = tested on: A549; assay: cells; type: cell-based
Method in brief: as §1

[16] = tested on: MEL-28; assay: cells; type: cell-based
Method in brief: as §1

[17] = tested on: HT29; assay: cells; type: cell-based
Method in brief: as §1

[18] = tested on: K562; assay: cells; type: cell-based
Method in brief: as §1

[19] = tested on: IGROV; assay: cells; type: cell-based
Method in brief: as §1

[20] = tested on: LNCAP; assay: cells; type: cell-based
Method in brief: as §1

[21] = s9, 60 min, 1 μM
Description: The metabolic stability was determined used human liver S9 homogenate that including both microsomal and cytosolic enzyme activities. The test compound was diluted in methanol (0.625%) and acetonitrile (0.625%) at the concentration 1 μM and incubated in the human liver pool (protein=1 mg/mL) during 60 min at 37° C. Peak areas corresponding to all analytes (metabolic products) were determined by HPLC-MS/MS. Areas were recorded and ratios of peak areas of analytes to that of internal standard for each analyte were determined. The ratio of precursor compound remaining after 60 minutes and the amount remaining at time zero, expressed as percent, are reported as metabolic stability. Higher values mean higher metabolic stability.

[22] = tested on: H9c2 (2-1), normal rat cardiac muscle cells; conditions: 24 h
[23] = tested on: (HEPG2); conditions: human, 24 h, 30 μM
Description: The toxic potential of compounds was investigated in vitro using primary human hepatocytes (HEPG2). The compounds were tested at 30 μM in duplicate with a final DMSO concentration of 1%. After incubation during 24 h at 37° C. the cell viability was determined by the conversion of oxided alarmarBlue (resazurin) to reduced alarmarBlue (resorufin). Chlorpromazine was used as reference compound. Results are expressed as a percent of inhibition of control values.

[24] = tested on: FDC-P1, normal mouse myelogeous stem cells; conditions: 24 h
[25] = tested on: AML-12, normal mouse liver cells; conditions: 24 h
Description: In order to assess the cytotoxicity of the drugs to normal cells, we used 96 well plates plated at a density of 5000 cells per well (except for the FDC-P1 which were plated at 12,000 cells per well) with normal cell lines (ATCC, Table 1) maintained as per the directions of the ATCC: AML-12, normal mouse liver cells; NRK-52E, normal rat kidney cells; L8, normal rat skeletal muscle cells; FDC-P1, normal mouse myelogeous stem cells; and H9c2 (2-1), normal rat cardiac muscle cells. The cells in each plate were permitted to settle overnight before adding the test drug.
To each well (100 μl medium) 10 μl of drug in media was added at varying concentrations (1×10-10-0.01 mg/ml final concentration) and further incubated overnight at 37° C. with 5% CO2. After 24 h the following assays were performed. All experiments were repeated at least 3 times and were assayed in duplicate.
MTS assay (CellTiter 96 aqueous) was performed according to the manufacturer's (Promega) directions (for all cell types). Cell viability (mitochondrial activity) is determined via enzymatic conversion of the formazan substrate.

Chain of CYP3A4 (P08684 whole entry): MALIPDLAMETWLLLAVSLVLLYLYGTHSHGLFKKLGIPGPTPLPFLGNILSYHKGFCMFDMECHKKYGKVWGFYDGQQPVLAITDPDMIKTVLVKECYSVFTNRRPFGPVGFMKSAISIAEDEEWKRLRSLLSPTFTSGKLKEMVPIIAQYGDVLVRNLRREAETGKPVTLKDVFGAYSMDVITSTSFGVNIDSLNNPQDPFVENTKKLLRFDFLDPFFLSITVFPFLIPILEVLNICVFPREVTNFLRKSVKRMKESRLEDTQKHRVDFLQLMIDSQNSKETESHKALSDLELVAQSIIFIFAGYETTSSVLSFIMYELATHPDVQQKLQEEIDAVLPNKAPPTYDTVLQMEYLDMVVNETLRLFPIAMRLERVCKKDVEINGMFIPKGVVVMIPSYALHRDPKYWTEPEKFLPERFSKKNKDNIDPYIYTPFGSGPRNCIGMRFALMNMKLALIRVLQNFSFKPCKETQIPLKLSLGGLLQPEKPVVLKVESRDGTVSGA
Chain of CYP2D6 (P10635 whole entry): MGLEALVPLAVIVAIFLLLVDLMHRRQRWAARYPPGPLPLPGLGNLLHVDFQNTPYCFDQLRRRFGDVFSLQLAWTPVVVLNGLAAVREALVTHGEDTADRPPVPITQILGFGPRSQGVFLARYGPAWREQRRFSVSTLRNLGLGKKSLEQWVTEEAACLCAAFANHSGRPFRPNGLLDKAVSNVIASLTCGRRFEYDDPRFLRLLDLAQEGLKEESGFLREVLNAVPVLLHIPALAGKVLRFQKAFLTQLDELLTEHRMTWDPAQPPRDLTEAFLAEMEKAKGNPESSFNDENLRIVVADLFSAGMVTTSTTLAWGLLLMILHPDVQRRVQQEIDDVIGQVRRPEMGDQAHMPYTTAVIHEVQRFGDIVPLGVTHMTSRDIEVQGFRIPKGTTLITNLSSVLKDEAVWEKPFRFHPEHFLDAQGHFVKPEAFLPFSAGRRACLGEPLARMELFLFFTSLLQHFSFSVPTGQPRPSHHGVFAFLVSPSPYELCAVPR

COc1c(C)cc2c(c1OC(=O)OC(C)(C)C)[C@@H]1C3[C@@H]4SC[C@]5(NCCc6c5[nH]c5ccccc65)C(=O)COC[C@@H](c5c6c(c(C)c(OC(C)=O)c54)OCO6)N3[C@@H](O)[C@H](C2)N1C (some centres unmarked) [Compound 46]
Skeletal [1]: 2.16E−07 | inhibition at 450 min, 10 µM [2]: 16% | Kidney [3]: 4.01E−08 | logD at 60 min [4]: > 5 | TGI ([5]; H-MEC-1): 1.17E−06 | GI50 ([5]; Homo sapiens, HMEC-1, H-MEC-1): 26 nM | CC50 ([5]; Homo sapiens, HMEC-1, read-out: LC50, H-MEC-1): ≥ 11700 nM | inhibition at 30 min, 10 µM [6]: 60% | GI50 ([7]; Homo sapiens, SK-OV-3, SK-OV3): 30.6 nM | CC50 ([7]; Homo sapiens, SK-OV-3, read-out: LC50, SK-OV3): ≥ 11700 nM | TGI ([7]; SK-OV3): 2.00E−06 | solubility [8]: 1.37 µM (≈ 1.19 µg/mL) | GI50 ([9]; Homo sapiens, LOVO-DOX): 38.2 nM | CC50 ([9]; Homo sapiens, read-out: LC50, LOVO-DOX): ≥ 11700 nM | TGI ([9]; LOVO-DOX): 2.41E−07 | GI50 ([10]; Homo sapiens, SK-BR-3, SK-BR3): 16.3 nM | CC50 ([10]; Homo sapiens, SK-BR-3, read-out: LC50, SK-BR3): 412 nM | TGI ([10]; SK-BR3): 5.84E−08 | GI50 ([11]; Homo sapiens, IGROV-ET): 49.5 nM | CC50 ([11]; Homo sapiens, read-out: LC50, IGROV-ET): 7350 nM | TGI ([11]; IGROV-ET): 1.29E−07 | GI50 ([12]; Homo sapiens, LoVo): 15.6 nM | CC50 ([12]; Homo sapiens, LoVo, read-out: LC50, LOVO): ≥ 11700 nM | TGI ([12]; LOVO): 5.70E−08 | TGI ([13]; DU145): 4.61E−08 | GI50 ([13]; Homo sapiens, DU-145, DU145): 6.48 nM | CC50 ([13]; Homo sapiens, DU-145, read-out: LC50, DU145): ≥ 11700 nM | GI50 ([14]; Homo sapiens, PANC-1, PANC-1): 41.1 nM | CC50 ([14]; Homo sapiens, PANC-1, read-out: LC50, PANC-1): ≥ 11700 nM | TGI ([14]; PANC-1): 2.58E−07 | TGI ([15]; A549): 6.78E−08 | GI50 ([15]; Homo sapiens, A549, A549, read-out: GI50): 33.3 nM | CC50 ([15]; Homo sapiens, A549, read-out: LC50, A549): 335 nM | GI50 ([16]; Homo sapiens, SK-MEL-28, MEL-28): 12.4 nM | CC50 ([16]; Homo sapiens, SK-MEL-28, read-out: LC50, MEL-28): 153 nM | TGI ([16]; MEL-28): 4.07E−08 | TGI ([17]; HT29): 1.22E−06 | GI50 ([17]; Homo sapiens, HT-29, HT29): 44.4 nM | CC50 ([17]; Homo sapiens, HT-29, read-out: LC50, HT29): ≥ 11700 nM | GI50 ([18]; Homo sapiens, K562, K562): 1220 nM | CC50 ([18]; Homo sapiens, K562, read-out: LC50, K562): 3380 nM | TGI ([18]; K562): 2.02E−06 | TGI [19]: 5.40E−08 | GI50 ([19]; Homo sapiens): 23.2 nM | CC50 ([19]; Homo sapiens, read-out: LC50, IGROV): 192 nM | GI50 ([20]; Homo sapiens, LNCaP): 0.117 nM | CC50 ([20]; Homo sapiens, LNCaP, read-out: LC50, LNCAP): 17.5 nM | TGI ([20]; LNCAP): 3.25E−09 | Human Liver S9 Metabolic Stability (% remaining) [21]: 7 % remaining | Heart [22]: 3.51E−08 | Cell Viability (% inhibition) [23]: 33 % inhibition | Myelo [24]: 1.17E−07 | Liver [25]: 5.01E−08
